In patent US9945845B2, “Methods of screening using amphibians” (priority 2009, dated 2018):
Entries after “also recorded” stand apart in the source; their conditions may differ. Where two headings read alike, the source gives them in different places.

Key:
[1] = system: blood vessel development and/or lymphangiogenesis in Xenopus embryos; format: in vivo, Xenopus laevis; conditions: for ISV phenotype: intersomitic vessels; for ISV phenotype / PCV phenotype / VVN phenotype / Lymphatic phenotype / Blood vessel phenotype / ALH phenotype / ALS phenotype / PLV phenotype: Xenopus embryos; for PCV phenotype: posterior cardinal vein; for VVN phenotype: vitelline vein network; for blood vessel development phenotype (apj expression, in words): 20 μM from stage 31, fixed at stage 35/36; for lymph vessel development phenotype (vegfr3 expression, in words): 20 μM from stage 31, fixed at stage 42; for ALH phenotype: anterior lymph heart; for ALS phenotype: anterior lymph sac; for PLV phenotype: posterior lymph vessels
Description: All chemicals were purchased from Sigma and 10-mM stock solutions in DMSO were prepared. Chemicals were used at a final concentration of 20 μM in screening medium to treat homozygous albino Xenopus embryos, which lack natural pigmentation. Chemical treatments of embryos (n=7 per well) was initiated at stage 31 (37 hpf) and terminated at stages 35/36 (50 hpf) or 42 (80 hpf). Embryos were fixed in 4% paraformaldehyde and processed for whole mount in situ hybridization.
Where albino embryos were used, the bleaching step was omitted. Semi-automated whole mount in situ hybridizations were performed using the Biolane HTI machine (Hölle & Hüttner AG, Germany). […] Images were captured using a stereomicroscope (SteREO Lumar V12; Carl Zeiss) equipped with a digital camera (AxioCam Color; Carl Zeiss). Composite figures were organized and labeled using Adobe Photoshop CS2 and Adobe Illustrator CS software.
Edema formation or late-stage lethality may result from excretory system defects, (cardio)vascular and/or lymphatic vascular pathologies. […] Embryos were fixed for in situ hybridization either at stage 35/36 to analyze vasculogenesis and intersomitic vein angiogenesis defects or at stage 42 to evaluate possible defects in lymph vessel development (FIGS. 3-5).

[2] = system: Xenopus embryos; conditions: for Lethality (NF) / Onset (NF): 20 μM, 1% DMSO; for Embr. phen.: embryonic phenotype in the primary screen; for Lethality: — = no stage of lethality given; for Type of edema Periocular: * = causing bulging eyes, # = bilateral, causing narrow-set eyes; for Type of edema Ventral: ‡ = edemas also detected in the gut
Description: 10-μl aliquots of the chemicals were transferred from the mother plates with a liquid handling robot (Aquarius, Tecan) into 96-well tissue culture plates to generate diluted stock plates (2 mM in DMSO; 50 μl final volume). […] Once embryos reached stage 31 (37 hpf), 10-μl aliquots of the diluted chemicals were added to the wells. […] Negative control wells contained embryos in screening medium and 0.1×MMR only. Embryos were treated with the chemicals in a humidified incubator at 23° C. over a timeframe of 4 days. Embryos were manually scored for the presence of edema or other morphological phenotypes using a teaching dissecting microscope (SV6; Carl Zeiss). Two investigators performed separately the scoring daily at stages 39 (56 hpf), 41 (76 hpf), 45 (98 hpf), and 47 (120 hpf). Dead embryos were removed and 100 μl of water was added daily to each well to compensate for fluid evaporation. […] For imaging at the end of the experiments. Xenopus tadpoles were anesthetized with 0.05% tricaine (Sigma #A5040) in 0.1×MMR. Images were captured using a stereomicroscope (SteREO Lumar V12; Carl Zeiss) equipped with a digital camera (AxioCam Color; Carl Zeiss).
Xenopus late tailbud embryos at stage 31 (37 hpf) were selected for compound treatment. […] Embryos were arrayed into 48-well dishes (five per well) and treated with test compounds at a concentration of 20 μM in the presence of 1% DMSO. […] All 48-well dishes also contained replicates of negative controls (1% DMSO). Embryos were monitored daily over a period of four days for edema formation. In addition, drug-induced lethality and other externally visible phenotypes were scored. On average, 320 compounds were screened per week.

[3] = system: LEC; assay: cells; format: cell-based, human; conditions: 1 μM in 0.1% DMSO
Description: Human umbilical vein endothelial cells (HUVEC) were purchased from PromoCell. […] HUVEC and LEC were cultured in endothelial basal medium EBM (Cambrex) supplemented with 20% fetal bovine serum (Invitrogen), antibiotic-antimycotics (100 U/ml penicillin, 100 μg/ml streptomycin, 250 ng/ml amphotericin; Invitrogen). 2 mM L-glutamine (Invitrogen), 10 μg/ml hydrocortisone (Fluka) and 25 μg/ml N^6,2′-O-dibutyryladenosine 3′,5′-cyclic monophosphate sodium salt (Fluka) for up to eleven passages.
The effect of the selected chemicals on the formation of tube-like structures was performed as follows. […] After overnight incubation at 37° C. the treated cell cultures were fixed with 4% paraformaldehyde. Each chemical treatment was performed in triplicate and the experiment was repeated at least three times. Three representative images of hotspots with tube-like structures were taken per well using a digital camera (AxioCam MRm, Carl Zeiss) mounted on an inverted microscope (Axiovert 200M, Carl Zeiss). The length of the tube-like structures was measured using the IPLab software (BD Biosciences). For each experimental condition, results are represented as average total tube length (μm) per area (three image fields).
The effects of the selected compounds on endothelial tube formation was assessed after over treatment of LEC and HUVEC cultures at a compound concentration of 1 μM in 0.1% DMSO. The length of the tube-like structures was measured using the IPLab software.

[4] = compounds causing lethality, treatment from stage 31, Nieuwkoop & Faber stage
[5] = compounds causing edema, treatment from stage 31, scored to stage 47
[6] = onset of edema, treatment from stage 31, Nieuwkoop & Faber stage
[7] = compounds causing cytotoxicity, treatment from stage 31, Nieuwkoop & Faber stage

With O=C1C(SCCO)=C(SCCO)C(=O)c2ccccc21 [NSC 95397, 2,3-bis[(2-Hydroxyethyl)thio]-1,4-naphthoquinone] the ISV phenotype [1] was “impaired”, the PCV phenotype [1] was “hypoplastic” and the VVN phenotype [1] was “hypoplastic”. The “Lethality (NF)” value [2, 4] was 40 NF.
For Cc1ccc(Cl)c(Nc2ccccc2C(=O)[O-])c1Cl.[Na+] [Meclotenamic acid sodium], the ISV phenotype [1] was “impaired”, the PCV phenotype [1] was “hypoplastic” and the VVN phenotype [1] was “hypoplastic”. For the same molecule, the Embr. phen. [2] was “EDE”.
CC(C)[C@H](CO)Nc1nc(Nc2cccc(Cl)c2)c2ncn(C(C)C)c2n1 [Purvalanol A] was tested, and the “blood vessel development phenotype (apj expression, in words)” value (from here on “blood vessel development phenotype”) [1] was “only interfered with the assembly of the VVN”, the Lymphatic phenotype [1] was “normal” and the ISV phenotype [1] was “normal”. The PCV phenotype [1] was “normal”, the VVN phenotype [1] was “hypoplastic” and the “Lethality (NF)” value [2, 4] was 41/42. The Embr. phen. [2] was “LET”.
In the case of COc1cc(-c2ccc(=O)[nH]n2)ccc1OC(F)F [Zardaverine, 6-(4-Difluoromethoxy-3-methoxyphenyl)-3(2H)-pyridazinone], the “blood vessel development phenotype” value [1] was “only interfered with the assembly of the VVN”, the ISV phenotype [1] was “normal” and the PCV phenotype [1] was “normal”. The VVN phenotype [1] was “hypoplastic”, the “Lethality (NF)” value [2, 5] was 43 NF and the “Type of edema Pericordial” value ([2]; embryonic stage) was 39/40. For the same molecule, the “Type of edema Pronephric” value ([2]; embryonic stage) was 41/42, the Lethality ([2]; embryonic stage) was 43 embryonic stages according to Nieuwkoop and Faber (NF) and the “Onset (NF)” value [2, 6] was 39/40.
In the case of Cc1cc(N)c2ccccc2[n+]1CCCCCCCCCC[n+]1c(C)cc(N)c2ccccc21.[Cl-].[Cl-] [Dequalinium dichloride, 1,1′-Decamethylenebis(4-aminoquinaldinium) dichloride], the “lymph vessel development phenotype (vegfr3 expression, in words)” value (“lymph vessel development phenotype” for short) [1] was “poorly developed, stunted lymphatics emerging from the ALS and ALH and hypoplastic PLV”, the Blood vessel phenotype [1] was “normal” and the ALH phenotype [1] was “stunted”. The ALS phenotype [1] was “stunted”, the PLV phenotype [1] was “hypoplastic” and the “Lethality (NF)” value [2, 5] was 39 NF. The “Type of edema Pericordial” value ([2]; embryonic stage) was 39 embryonic stages according to Nieuwkoop and Faber (NF) and the Lethality ([2]; embryonic stage) was 39 embryonic stages according to Nieuwkoop and Faber (NF).
In the case of CN(C)S(=O)(=O)c1ccc2c(c1)C(=Cc1cc3c([nH]1)CCCC3)C(=O)N2 [SU 6656, 2,3-Dihydro-N,N-dimethyl-2-oxo-3-[(4,5,6,7-tetrahydro-1H-indol-2-yl)methylene]-1H-indole-5-sulfonamide], the “lymph vessel development phenotype” value [1] was “inhibiting preferentially lymphatic vascular development; also recorded: poorly developed, stunted lymphatics emerging from the ALS and ALH and hypoplastic PLV”, the Blood vessel phenotype [1] was “normal” and the ALH phenotype [1] was “dysplastic”. The ALS phenotype [1] was “stunted”, the PLV phenotype [1] was “hypopiastic” and the “Lethality (NF)” value [2, 5] was 46 NF. The “Type of edema Pericordial” value ([2]; embryonic stage) was 41/42, the “Type of edema Proctodeal” value ([2]; embryonic stage) was 39/40 and the “Type of edema Pronephric” value ([2]; embryonic stage) was 39/40. The “Type of edema Periocular” value ([2]; embryonic stage) was 41/42*, the Lethality ([2]; embryonic stage) was 46 embryonic stages according to Nieuwkoop and Faber (NF) and the “Type of edema Ventral” value ([2]; embryonic stage) was 39/40. For the same molecule, the “Onset (NF)” value [2, 6] was 39/40.
With Clc1ccc(C(c2ccc(Cl)cc2)n2cc[n+](CC(OCc3ccc(Cl)cc3Cl)c3ccc(Cl)cc3Cl)c2)cc1 (stereo not shown) [Calmidazolium chloride] the “blood vessel development phenotype” value [1] was “promoting ectopic, premature angiogenesis; also recorded: ectopic sprouting phenotype was even more pronounced”, the ISV phenotype [1] was “ectopic” and the PCV phenotype [1] was “normal”. The VVN phenotype [1] was “hyperplastic” and the “Lethality (NF)” value [2, 4] was 37/38.
CC[C@@H]1/C=C/C=C/C[C@H](C)[C@H](O)[C@](C)(O)C(=O)[C@H](C)[C@@H](O)[C@H](C)C(=O)[C@H](C)[C@@H](O)[C@H](C)/C=C/C(=O)O[C@H]2[C@@H](C)[C@@H](CC1)O[C@@]1(CC[C@@H](C)[C@@H](C[C@H](C)O)O1)[C@@H]2C [oligomycin A] was tested, and the “effect on LEC tube formation (in words)” value [3] was “preferentially blocked tube formation in LEC rather than HUVEC cultures”.
With CC[C@H](C)C(=O)O[C@H]1CCC=C2C=C[C@H](C)[C@H](CC[C@@H]3C[C@@H](O)CC(=O)O3)[C@H]21 [Mevastatin] the “lymph vessel development phenotype” value [1] was “lymphangiogenesis was largely suppressed”, the Blood vessel phenotype [1] was “normal” and the ALH phenotype [1] was “impaired”. The ALS phenotype [1] was “impaired”, the PLV phenotype [1] was “hypoplastic” and the “Lethality (NF)” value [2, 5] was 45 NF. The Embr. phen. [2] was “EDE”, the “Type of edema Pericordial” value ([2]; embryonic stage) was 35/36 and the Lethality ([2]; embryonic stage) was 45 embryonic stages according to Nieuwkoop and Faber (NF). The “Type of edema Ventral” value ([2]; embryonic stage) was 41/42 and the “Onset (NF)” value [2, 6] was 35/36.
O.c1cnc2c(c1)ccc1cccnc12 [1,10-Phenanthroline monohydrate] was tested, and the “Lethality (NF)” value [2, 5] was 46 NF and the “Onset (NF)” value [2, 6] was 39/40.
CCOC(=O)C1=C(C)NC(C)=C(C(=O)OC)C1c1cccc([N+](=O)[O-])c1 (stereo not shown) [Nitrendipine, 1,4-Dihydro-2,6-dimethyl-4-(3-nitrophenyl)-3,5-pyridinecarboxylic acid ethyl methyl ester] was tested, and the “Lethality (NF)” value [2, 4] was 45 NF.
OCc1ccc(-c2nn(Cc3ccccc3)c3ccccc23)o1 [YC-1, 3-(5′-Hydroxymethyl-2′-fulyl)-1-benzyl indazole] was tested, and the “blood vessel development phenotype” value [1] was “dispersed, punctuated patterns of VVN endothelia”, the Lymphatic phenotype [1] was “normal” and the ISV phenotype [1] was “normal”. The PCV phenotype [1] was “normal”, the VVN phenotype [1] was “hypoplastic” and the Embr. phen. [2] was “EDE”. The “Onset (NF)” value [2, 6] was 45 NF.
CCN1/C(=C/C(C)=O)Sc2ccc(OC)cc21 [TG003, (Z)-1-(3-Ethyl-5-methoxy-2,3-dihydrobenzothiazol-2-ylidene)-propan-2-one] was tested, and the “Lethality (NF)” value [2, 4] was 40 NF.
With CN[C@@H](C)[C@H](O)c1ccccc1.CN[C@@H](C)[C@H](O)c1ccccc1.O=S(=O)(O)O [(-)-Ephedrine hemisulfate] the “Onset (NF)” value ([2]; onset of pigmentation defects) was 33/34.
In the case of Cc1nc2sccn2c(=O)c1CCN1CCC(=C(c2ccccc2)c2ccc(F)cc2)CC1 [Diacylglycerol kinase inhibitor I], the “Type of edema Periocular” value ([2]; embryonic stage) was 45 embryonic stages according to Nieuwkoop and Faber (NF), the “Type of edema Ventral” value ([2]; embryonic stage) was 45 embryonic stages according to Nieuwkoop and Faber (NF) and the “Onset (NF)” value [2, 6] was 45 NF.
For CCCCCCCCCCCCCCCCOC[C@H](COCC(F)(F)F)OP(=O)(O)OC.[Li] [MJ33, 1-Hexadecyl-3-(trifluoroethyl)-sn-glycero-2-phosphomethanol lithium], the “Lethality (NF)” value [2, 7] was 32 NF.
In the case of C[N+](C)(C)CCC(=O)c1cccc2ccccc12.[I-] [2-(alpha-Naphthoyl)ethyltrimethylammonium iodide], the “Lethality (NF)” value [2, 7] was 32 NF.
